EPA's ToxValDB 9.5
Values after ≈ are worked out from the molar mass of the structure shown. Values joined by “and” are separate entries in the source; they are usually repeats but may differ in a detail not shown here. Equal entries are not always repeated.

Key:
Canidae = settings: oral, diet, M/F, Dog Other
Rattus norvegicus [1] = settings: for LD50 / LC50: acute
Oryctolagus sp. = settings: for LD50: dermal; for NOAEL: duration: 13 days, gavage
Mus musculus = settings: for LC50 / LD50: acute; for LD50: injection
Rattus norvegicus [2] = settings: for LEL: uterotrophic, Active; for LOEL / NOEL: Hershberger
Rattus norvegicus [3] = settings: developmental; oral; gavage; M; Sprague-Dawley; generation: F1; F1: Testosterone (Testes)
[4] = chronic, duration: 1 years, decreased prostate weight + Increased RBC Heinz bodies
[5] = subchronic, duration: 90 days, sedation and tonoclonic spasms reduced food intake and body weight hematological effects
[6] = duration: 3 days, injection, subcutaneous
[7] = chronic, duration: 104 weeks, oral, diet, CDA
[8] = subchronic, duration: 90 days, oral, gavage, CDA Sprague-Dawley
[9] = duration: 5 days, oral, gavage, Sprague-Dawley, active + Androgenic + androgenic + advanced age of PPS, histopathology effects on reproductive tissues
[10] = duration: 10 days, injection, subcutaneous, Wistar, active + Androgenic + androgenic
[11] = duration: 10 days, oral, gavage, Sprague-Dawley, active + Antiandrogenic + anti-androgenic
[12] = chronic, duration: 2 years, liver toxicity

In the case of `CC(C)NC(=O)N1CC(=O)N(c2cc(Cl)cc(Cl)c2)C1=O`, the LEL (Canidae; [4]) is reported as 15 mg/kg-day and the NOEL (Canidae; [4]) is reported as 4.2 mg/kg-day.
Compound `C[N+]1(C)CCCCC1.[Cl-]` [1,1-Dimethylpiperidinium chloride] has an LEL (Canidae; [5]) of 75 mg/kg-day and an NOEL (Canidae; [5]) of 25 mg/kg-day.
In the case of `C=C(C)C(=O)OCCN(C)C` [2-(Dimethylamino)ethyl methacrylate], the LD50 (Rattus norvegicus [1]; dermal, Sprague-Dawley) is reported as over 2000 mg/kg, the LC50 (Rattus norvegicus [1]; inhalation) is reported as 0.62 µg/mL (≈ 3.94 µM) and the LD50 (Rattus norvegicus [1]; oral, gavage, Crj:CD) is reported as over 2000 mg/kg. For the same compound, the NOAEL (Rattus norvegicus [1]; reproduction developmental, duration: 41 days, oral, gavage, Crj:CD, generation: F0) was 200 mg/kg-day, the NOAEL (Rattus norvegicus [1]; short-term, duration: 3 weeks, inhalation) was 643 mg/m3 and the NOAEL (Rattus norvegicus [1]; subchronic, duration: 41 days, oral, gavage, Crj:CD) was 200 mg/kg-day. It also gave an LD50 (Oryctolagus sp.; acute) of over 3000 mg/kg, an LC50 (Mus musculus; inhalation) of 1.8 µg/mL (≈ 11.4 µM) and an LD50 (Mus musculus; intraperitoneal) of 25 mg/kg.
For `Cc1cc(C)cc(O)c1` [3,5-Dimethylphenol], the LC50 (Rattus norvegicus [1]; oral) was 608 mg/kg, the LC50 (Oryctolagus sp.; acute, oral) was 1310 mg/kg and the LC50 (Mus musculus; oral) was 477 mg/kg.
With `CCC(C)(C)c1ccc(O)cc1` [4-(2-Methylbutan-2-yl)phenol] the LEL (Rattus norvegicus [2]; [6]) was 200 mg/kg-day and 202 mg/kg-day.
For `CC(C)(C)C1CCC(O)CC1` (configuration not stated) [4-tert-Butylcyclohexanol], the LD50 (Rattus norvegicus [1]; oral) was 4200 mg/kg, the LOAEL (Rattus norvegicus [1]; short-term, duration: 28 days, oral, gavage, Wistar) was 150 mg/kg-day and the LD50 (Oryctolagus sp.; acute) was over 5000 mg/kg. The LD50 (Mus musculus; Intraperitoneal, CF1) was ≥ 50 mg/kg and ≤ 100 mg/kg.
`CC1(C)NC(=O)NC1=O` [5,5-Dimethylhydantoin] gave an LC50 (Rattus norvegicus [1]; inhalation) of over 14.7 µg/mL, an LD50 (Rattus norvegicus [1]; oral, gavage, Sprague-Dawley) of over 5000 mg/kg and an NOAEL (Rattus norvegicus [1]; chronic, duration: 24 months, oral, diet, Crl:CDABR) of over 1000 mg/kg-day. For the same compound, the LOAEL (Rattus norvegicus [1]; [7]) was over 1000 mg/kg-day, the NOAEL (Rattus norvegicus [1]; [7]) was 1000 mg/kg-day and the NOAEL (Rattus norvegicus [1]; developmental, duration: 14 days, oral, gavage, Sprague-Dawley COBS CD) was at most 2000 mg/kg-day. For the same compound, the NOAEL (Rattus norvegicus [1]; developmental, oral, gavage, Crl:CD(SD) BR) was 250 mg/kg-day, the NOAEL (Rattus norvegicus [1]; reproduction developmental, duration: 10 weeks, oral, diet, CD, generation: F0) was 20000 ppm and the NOAEL (Rattus norvegicus [1]; reproduction developmental, duration: 10 weeks, oral, diet, CD, generation: F1) was 20000 ppm. The NOAEL (Rattus norvegicus [1]; reproduction developmental, oral, gavage, Crl:CD(SD) BR, generation: F0) was 1000 mg/kg-day, the NOAEL (Rattus norvegicus [1]; reproduction developmental, oral, gavage, F, Crl:CD(SD) BR) was 1000 mg/kg-day and the NOAEL (Rattus norvegicus [1]; subchronic, duration: 13 weeks, oral, gavage, Sprague-Dawley (CRl: CDBR)) was 1000 mg/kg-day. The LOAEL (Rattus norvegicus [1]; [8]) was 5000 mg/kg-day, the NOAEL (Rattus norvegicus [1]; [8]) was 2000 mg/kg-day and the LD50 (Oryctolagus sp.; acute, New Zealand) was over 20000 mg/kg. The LD50 (Oryctolagus sp.; acute, occlusive, New Zealand) was over 3000 mg/kg, the NOAEL (Oryctolagus sp.; developmental, oral, New Zealand) was 100 mg/kg-day and the NOAEL (Oryctolagus sp.; reproduction developmental, oral, F, New Zealand) was 500 mg/kg-day. It also gave an NOAEL (Mus musculus; short-term, duration: 28 days, oral, diet, F, CD1) of 50000 ppm and an LOAEL (Mus musculus; subchronic, duration: 13 weeks, oral, diet, CD1) of 9850 mg/kg-day.
In the case of `C=C[C@@]12CCc3cc(O)ccc3[C@H]1CC[C@@]1(C)[C@H]2CC[C@@H]1O` [8beta-Vinylestra-1,3,5(10)-triene-3,17beta-ol], the LOEL (Rattus norvegicus [2]; duration: 12 days, injection, subcutaneous, Wistar, active + Androgenic + androgenic) is reported as 100 mg/kg-day.
With `C[C@]12CCC(=O)C=C1CC[C@@H]1[C@@H]2CC[C@@]2(C)[C@H]1CC[C@]2(C)O` [17-Methyltestosterone] the LOEL (Rattus norvegicus [2]; [9]) was 80 mg/kg-day and 100 mg/kg-day, the NOEL (Rattus norvegicus [2]; [9]) was 20 mg/kg-day and the LOEL (Rattus norvegicus [2]; duration: 7 days, injection, subcutaneous, Sprague-Dawley, androgenic) was 0.16 mg/kg-day. For the same compound, the LEL (Rattus norvegicus [2]; [6]) was 10 mg/kg-day, the LEL (Rattus norvegicus [2]; duration: 4 days, injection, subcutaneous) was 0.5 mg/kg-day and the LEL (Rattus norvegicus [2]; duration: 14 days, oral) was 3 mg.
`CC[C@@H](C(C)C)[C@@H](O)[C@H](O)[C@@H](C)[C@H]1CC[C@H]2[C@@H]3COC(=O)[C@H]4C[C@H](O)[C@H](O)C[C@]4(C)[C@H]3CC[C@]12C` [28-Homobrassinolide] was tested, and the LOEL (Rattus norvegicus [2]; [10]) was 4 mg/kg-day and the NOEL (Rattus norvegicus [2]; [10]) was 0.4 mg/kg-day.
In the case of `CC/C(=C(\c1ccc(O)cc1)c1ccc(OCCN(C)C)cc1)c1ccccc1` [(Z)-4-Hydroxytamoxifen], the LEL (Rattus norvegicus [2]; [6]) is reported as 0.00016 mg/day.
Work on `c1ccc2cc3c(ccc4ccccc43)cc2c1` [Benz(a)anthracene] yielded an LEL (Rattus norvegicus [2]; [6]) of 1 mg/kg-day.
With `CC(C)CCCCCCOC(=O)c1ccccc1C(=O)OCCCCCCC(C)C` [Diisononyl phthalate] the LOEL (Rattus norvegicus [2]; [11]) was 500 mg/kg-day, the NOEL (Rattus norvegicus [2]; [11]) was 100 mg/kg-day and the NOEL (Rattus norvegicus [3]) was 750 mg/kg-day.
`CN(C)C(=O)C(c1ccccc1)c1ccccc1` [Diphenamid] gave an LEL (Canidae; [12]) of 10 mg/kg-day and an NOEL (Canidae; [12]) of 3 mg/kg-day.
